Measured values published in ChEMBL document CHEMBL3817825, “Synthesis and biological evaluation of Schiff base-linked imidazolyl naphthalimides as novel potential anti-MRSA agents” (2016).
≈ marks a conversion by molar mass, not a printed value.

How the values were obtained:
Candida albicans = experiment: Antifungal activity against Candida albicans ATCC76615 after 24 hrs by two fold serial dilution method; format: functional; conditions: ATCC76615, 24 h
Cyberlindnera jadinii = experiment: Antifungal activity against Candida utilis ATCC9950 after 24 hrs by two fold serial dilution method; format: functional; conditions: Williopsis jadinii, ATCC9950, 24 h
Saccharomyces cerevisiae = experiment: Antifungal activity against Beer yeast ATCC9763 after 24 hrs by two fold serial dilution method; format: functional; conditions: ATCC9763, 24 h
Staphylococcus aureus [1] = experiment: Antibacterial activity against methicillin-resistant Staphylococcus aureus N315 after 24 hrs by two fold serial dilution method; format: functional; conditions: N315, 24 h
Candida = experiment: Antifungal activity against Candida mycoderma ATCC10231 after 24 hrs by two fold serial dilution method; format: functional; conditions: ATCC10231, 24 h
Shigella dysenteriae = experiment: Antibacterial activity against Shigella dysenteriae after 24 hrs by two fold serial dilution method; format: functional
Pseudomonas aeruginosa = experiment: Antibacterial activity against Pseudomonas aeruginosa ATCC27853 after 24 hrs by two fold serial dilution method; format: functional; conditions: ATCC27853, 24 h
Staphylococcus aureus [2] = experiment: Antibacterial activity against Staphylococcus aureus ATCC25923 after 24 hrs by two fold serial dilution method; format: functional; conditions: ATCC25923, 24 h
Escherichia coli [3] = experiment: Antibacterial activity against Escherichia coli DH52 after 24 hrs by two fold serial dilution method; format: functional; conditions: DH52, 24 h
Bacillus subtilis = experiment: Antibacterial activity against Bacillus subtilis ATCC6633 after 24 hrs by two fold serial dilution method; format: functional; conditions: ATCC6633, 24 h
Aspergillus flavus = experiment: Antifungal activity against Aspergillus flavus ATCC204304 after 24 hrs by two fold serial dilution method; format: functional; conditions: ATCC204304, 24 h
Micrococcus luteus = experiment: Antibacterial activity against Micrococcus luteus ATCC4698 after 24 hrs by two fold serial dilution method; format: functional; conditions: ATCC4698, 24 h
Salmonella typhi = experiment: Antibacterial activity against Bacillus typhi after 24 hrs by two fold serial dilution method; format: functional, Salmonella enterica subsp. enterica serovar Typhi; conditions: Salmonella enterica
Bacillus = experiment: Antibacterial activity against Bacillus proteus ATCC13315 after 24 hrs by two fold serial dilution method; format: functional; conditions: ATCC13315, 24 h
Escherichia coli [4] = experiment: Antibacterial activity against Escherichia coli JM109 after 24 hrs by two fold serial dilution method; format: functional; conditions: JM109, 24 h

| SMILES | MIC (Candida albicans) | MIC (Cyberlindnera jadinii) | MIC (Saccharomyces cerevisiae) | MIC (Staphylococcus aureus [1]) | MIC (Candida) | MIC (Shigella dysenteriae) | MIC (Pseudomonas aeruginosa) | MIC (Staphylococcus aureus [2]) | MIC (Escherichia coli [3]) | MIC (Bacillus subtilis) | MIC (Aspergillus flavus) | MIC (Micrococcus luteus) | MIC (Salmonella typhi) | MIC (Bacillus) | MIC (Escherichia coli [4]) |
| --- | --- | --- | --- | --- | --- | --- | --- | --- | --- | --- | --- | --- | --- | --- | --- |
| CCCCc1nc(Cl)c(/C=N/N2C(=O)c3cccc4c(N5CCOCC5)ccc(c34)C2=O)n1Cc1ccc(C)cc1 | 450 µM (≈ 257 µg/mL) | 110 µM (≈ 62.7 µg/mL) | 450 µM (≈ 257 µg/mL) | 450 µM (≈ 257 µg/mL) | 900 µM (≈ 513 µg/mL) | 0.11 µM (≈ 0.0627 µg/mL) | 450 µM (≈ 257 µg/mL) | 220 µM (≈ 125 µg/mL) | 890 µM (≈ 507 µg/mL) | 890 µM (≈ 507 µg/mL) | 900 µM (≈ 513 µg/mL) | 450 µM (≈ 257 µg/mL) | 0.45 µM (≈ 0.257 µg/mL) | 450 µM (≈ 257 µg/mL) | 60 µM (≈ 34.2 µg/mL) |
| CCCCc1nc(Cl)c(/C=N/N2C(=O)c3cccc4c(N5CCOCC5)ccc(c34)C2=O)n1Cc1ccc(OC)cc1 | 430 µM (≈ 252 µg/mL) | 430 µM (≈ 252 µg/mL) | 220 µM (≈ 129 µg/mL) | 440 µM (≈ 258 µg/mL) | 870 µM (≈ 510 µg/mL) | 0.44 µM (≈ 0.258 µg/mL) | 440 µM (≈ 258 µg/mL) | 440 µM (≈ 258 µg/mL) | 440 µM (≈ 258 µg/mL) | 440 µM (≈ 258 µg/mL) | 430 µM (≈ 252 µg/mL) | 870 µM (≈ 510 µg/mL) | 0.44 µM (≈ 0.258 µg/mL) | 220 µM (≈ 129 µg/mL) | 870 µM (≈ 510 µg/mL) |
| CCCCc1nc(Cl)c(/C=N/N2C(=O)c3cccc4c(N5CCOCC5)ccc(c34)C2=O)[nH]1 | 270 µM (≈ 126 µg/mL) | 550 µM (≈ 256 µg/mL) | 270 µM (≈ 126 µg/mL) | 70 µM (≈ 32.6 µg/mL) | 140 µM (≈ 65.2 µg/mL) | 0.07 µM (≈ 0.0326 µg/mL) | 70 µM (≈ 32.6 µg/mL) | 270 µM (≈ 126 µg/mL) | 270 µM (≈ 126 µg/mL) | 550 µM (≈ 256 µg/mL) | 550 µM (≈ 256 µg/mL) | 270 µM (≈ 126 µg/mL) | 0.27 µM (≈ 0.126 µg/mL) | 270 µM (≈ 126 µg/mL) | 270 µM (≈ 126 µg/mL) |
| CCCCCCCCn1c(CCCC)nc(Cl)c1/C=N/N1C(=O)c2cccc3c(N4CCOCC4)ccc(c23)C1=O | 440 µM (≈ 254 µg/mL) | 880 µM (≈ 509 µg/mL) | 880 µM (≈ 509 µg/mL) | 440 µM (≈ 254 µg/mL) | 440 µM (≈ 254 µg/mL) | 0.88 µM (≈ 0.509 µg/mL) | 880 µM (≈ 509 µg/mL) | 220 µM (≈ 127 µg/mL) | 440 µM (≈ 254 µg/mL) | 440 µM (≈ 254 µg/mL) | 880 µM (≈ 509 µg/mL) | 880 µM (≈ 509 µg/mL) | 0.44 µM (≈ 0.254 µg/mL) | 440 µM (≈ 254 µg/mL) | 220 µM (≈ 127 µg/mL) |
| CCCCCCCn1c(CCCC)nc(Cl)c1/C=N/N1C(=O)c2cccc3c(N4CCOCC4)ccc(c23)C1=O | 230 µM (≈ 130 µg/mL) | 450 µM (≈ 254 µg/mL) | 450 µM (≈ 254 µg/mL) | 450 µM (≈ 254 µg/mL) | 450 µM (≈ 254 µg/mL) | 0.91 µM (≈ 0.513 µg/mL) | 450 µM (≈ 254 µg/mL) | 450 µM (≈ 254 µg/mL) | 450 µM (≈ 254 µg/mL) | 450 µM (≈ 254 µg/mL) | 450 µM (≈ 254 µg/mL) | 450 µM (≈ 254 µg/mL) | 0.45 µM (≈ 0.254 µg/mL) | 450 µM (≈ 254 µg/mL) | 450 µM (≈ 254 µg/mL) |
| CCCCc1nc(Cl)c(/C=N/N2C(=O)c3cccc4c(N5CCOCC5)ccc(c34)C2=O)n1Cc1ccc(Cl)cc1Cl | 370 µM (≈ 231 µg/mL) | 180 µM (≈ 112 µg/mL) | 370 µM (≈ 231 µg/mL) | 370 µM (≈ 231 µg/mL) | 370 µM (≈ 231 µg/mL) | 0.37 µM (≈ 0.231 µg/mL) | 180 µM (≈ 112 µg/mL) | 180 µM (≈ 112 µg/mL) | 740 µM (≈ 462 µg/mL) | 370 µM (≈ 231 µg/mL) | 180 µM (≈ 112 µg/mL) | 180 µM (≈ 112 µg/mL) | 0.37 µM (≈ 0.231 µg/mL) | 370 µM (≈ 231 µg/mL) | 370 µM (≈ 231 µg/mL) |
| CCCCc1nc(Cl)c(/C=N/N2C(=O)c3cccc4c(N5CCCCC5)ccc(c34)C2=O)[nH]1 | 140 µM (≈ 65 µg/mL) | 280 µM (≈ 130 µg/mL) | 550 µM (≈ 255 µg/mL) | 280 µM (≈ 130 µg/mL) | 550 µM (≈ 255 µg/mL) | 0.28 µM (≈ 0.13 µg/mL) | 560 µM (≈ 260 µg/mL) | 280 µM (≈ 130 µg/mL) | 560 µM (≈ 260 µg/mL) | 280 µM (≈ 130 µg/mL) | 550 µM (≈ 255 µg/mL) | 280 µM (≈ 130 µg/mL) | 0.56 µM (≈ 0.26 µg/mL) | 560 µM (≈ 260 µg/mL) | 560 µM (≈ 260 µg/mL) |
| CCCCc1nc(Cl)c(/C=N/N2C(=O)c3cccc4c(N5CCOCC5)ccc(c34)C2=O)n1Cc1ccccc1F | 440 µM (≈ 253 µg/mL) | 440 µM (≈ 253 µg/mL) | 440 µM (≈ 253 µg/mL) | 440 µM (≈ 253 µg/mL) | 440 µM (≈ 253 µg/mL) | 0.44 µM (≈ 0.253 µg/mL) | 220 µM (≈ 126 µg/mL) | 220 µM (≈ 126 µg/mL) | 440 µM (≈ 253 µg/mL) | 440 µM (≈ 253 µg/mL) | 440 µM (≈ 253 µg/mL) | 220 µM (≈ 126 µg/mL) | 0.44 µM (≈ 0.253 µg/mL) | 440 µM (≈ 253 µg/mL) | 110 µM (≈ 63.1 µg/mL) |
| CCCCCn1c(CCCC)nc(Cl)c1/C=N/N1C(=O)c2cccc3c(N4CCOCC4)ccc(c23)C1=O | 480 µM (≈ 257 µg/mL) | 7 µM (≈ 3.75 µg/mL) | 480 µM (≈ 257 µg/mL) | 480 µM (≈ 257 µg/mL) | 480 µM (≈ 257 µg/mL) | 0.48 µM (≈ 0.257 µg/mL) | 960 µM (≈ 515 µg/mL) | 240 µM (≈ 129 µg/mL) | 480 µM (≈ 257 µg/mL) | 240 µM (≈ 129 µg/mL) | 480 µM (≈ 257 µg/mL) | 240 µM (≈ 129 µg/mL) | 0.24 µM (≈ 0.129 µg/mL) | 480 µM (≈ 257 µg/mL) | 480 µM (≈ 257 µg/mL) |
| CCn1cc(C(=O)O)c(=O)c2cc(F)c(N3CCNCC3)cc21 [NORFLOXACIN] |  |  |  | 20 µM (≈ 6.39 µg/mL) |  | 0.05 µM (≈ 0.016 µg/mL) | 50 µM (≈ 16 µg/mL) | 6 µM (≈ 1.92 µg/mL) | 3 µM (≈ 0.958 µg/mL) | 10 µM (≈ 3.19 µg/mL) |  | 6 µM (≈ 1.92 µg/mL) |  | 20 µM (≈ 6.39 µg/mL) | 3 µM (≈ 0.958 µg/mL) |
